Data: patent publication US20250145640A1, “2,2-DIFLUORO-5H-[1,3]DIOXOLO[4,5-F]ISOINDOL-7-ONE DERIVATIVES AS PESTICIDES” (SYNGENTA CROP PROTECTION AG, priority 2021, published 2025)

Columns and labels:
Assay type in all cases: in vivo
[1] = system: Diabrotica Balteata (Corn Root Worm); experiment: Example B2: Activity against Diabrotica balteata, sprayed maize sprouts on agar; conditions: 96 h, application rate 200 ppm, L2 larvae, assessed 4 days after infestation, read-out: effect in at least one of the two categories (mortality or growth inhibition)
Method: Example B2: Activity Against Diabrotica Balteata (Corn Root Worm)
Maize sprouts placed onto an agar layer in 24-well microtiter plates were treated with aqueous test solutions prepared from 10′000 ppm DMSO stock solutions by spraying. After drying, the plates were infested with L2 larvae (6 to 10 per well). The samples were assessed for mortality and growth inhibition in comparison to untreated samples 4 days after infestation.

[2] = system: Chilo suppressalis (Striped Rice Stemborer); experiment: Example B1: Activity against Chilo suppressalis, artificial diet in 24-well microtiter plates; conditions: 144 h, application rate 200 ppm, L2 larvae, assessed 6 days after infestation, read-out: control (at least one of mortality, anti-feedant effect, growth inhibition)
Method: Example B1: Activity Against Chilo suppressalis (Striped Rice Stemborer)
24-well microtiter plates with artificial diet were treated with aqueous test solutions prepared from 10′000 ppm DMSO stock solutions by pipetting. After drying, the plates were infested with L2 larvae (6-8 per well). The samples were assessed for mortality, anti-feeding effect, and growth inhibition in comparison to untreated samples 6 days after infestation. Control of Chilo suppressalis by a test sample is given when at least one of the categories mortality, anti-feedant effect, and growth inhibition is higher than the untreated sample.

[3] = system: Plutella xylostella (Diamond Back Moth); experiment: Example B5: Activity against Plutella xylostella, artificial diet in 24-well microtiter plates; conditions: 192 h, application rate 200 ppm, eggs, assessed 8 days after infestation, read-out: effect in at least one of the two categories (mortality or growth inhibition)
Method: Example B5: Activity Against Plutella xylostella (Diamond Back Moth)
24-well microtiter plates with artificial diet were treated with aqueous test solutions prepared from 10′000 ppm DMSO stock solutions by pipetting. After drying, Plutella eggs were pipetted through a plastic stencil onto a gel blotting paper and the plate was closed with it. The samples were assessed for mortality and growth inhibition in comparison to untreated samples 8 days after infestation.

[4] = system: Spodoptera littoralis (Egyptian Cotton Leaf Worm); experiment: Example B6: Activity against Spodoptera littoralis, sprayed cotton leaf discs on agar; conditions: foliar, 72 h, application rate 200 ppm, L1 larvae, assessed 3 days after infestation, read-out: control (at least one of mortality, anti-feedant effect, growth inhibition)
Method: Example B6: Activity Against Spodoptera littoralis (Egyptian Cotton Leaf Worm)
Cotton leaf discs were placed onto agar in 24-well microtiter plates and sprayed with aqueous test solutions prepared from 10′000 ppm DMSO stock solutions. After drying the leaf discs were infested with five L1 larvae. The samples were assessed for mortality, anti-feeding effect, and growth inhibition in comparison to untreated samples 3 days after infestation. Control of Spodoptera littoralis by a test sample is given when at least one of the categories mortality, anti-feedant effect, and growth inhibition is higher than the untreated sample.

CCS(=O)(=O)c1c(N2Cc3cc4c(cc3C2=O)OC(F)(F)O4)nc2cc(C(F)(F)F)ccn12 [P5, 6-[3-ethylsulfonyl-7-(trifluoromethyl)imidazo[1,2-a]pyridin-2-yl]-2,2-difluoro-5H-[1,3]dioxolo[4,5-f]isoindol-7-one]
≥ 80%: percent effect (mortality or growth inhibition) at 200 ppm [1] | control (mortality, anti-feedant effect or growth inhibition) at 200 ppm [2] | percent effect (mortality or growth inhibition) at 200 ppm [3] | percent control (mortality, anti-feedant effect or growth inhibition) at 200 ppm [4]

CCS(=O)(=O)c1c(N2Cc3cc4c(cc3C2=O)OC(F)(F)O4)nn2ccc(C(F)(F)F)cc12 [P6, 6-[3-ethylsulfonyl-5-(trifluoromethyl)pyrazolo[1,5-a]pyridin-2-yl]-2,2-difluoro-5H-[1,3]dioxolo[4,5-f]isoindol-7-one]
≥ 80%: percent effect (mortality or growth inhibition) at 200 ppm [1] | control (mortality, anti-feedant effect or growth inhibition) at 200 ppm [2] | percent effect (mortality or growth inhibition) at 200 ppm [3] | percent control (mortality, anti-feedant effect or growth inhibition) at 200 ppm [4]

CCS(=O)(=O)c1c(N2Cc3cc4c(cc3C2=O)OC(F)(F)O4)nc2ccc(C(C)(F)F)cn12 [P7, 6-[6-(1,1-difluoroethyl)-3-ethylsulfonyl-imidazo[1,2-a]pyridin-2-yl]-2,2-difluoro-5H-[1,3]dioxolo[4,5-f]isoindol-7-one]
≥ 80%: percent effect (mortality or growth inhibition) at 200 ppm [1] | control (mortality, anti-feedant effect or growth inhibition) at 200 ppm [2] | percent effect (mortality or growth inhibition) at 200 ppm [3] | percent control (mortality, anti-feedant effect or growth inhibition) at 200 ppm [4]

CCS(=O)(=O)c1c(N2Cc3cc4c(cc3C2=O)OC(F)(F)O4)nc2cc(C(C)(F)F)ccn12 [P8, 6-[7-(1,1-difluoroethyl)-3-ethylsulfonyl-imidazo[1,2-a]pyridin-2-yl]-2,2-difluoro-5H-[1,3]dioxolo[4,5-f]isoindol-7-one]
≥ 80%: percent effect (mortality or growth inhibition) at 200 ppm [1] | control (mortality, anti-feedant effect or growth inhibition) at 200 ppm [2] | percent effect (mortality or growth inhibition) at 200 ppm [3] | percent control (mortality, anti-feedant effect or growth inhibition) at 200 ppm [4]

CCS(=O)(=O)c1c(N2Cc3cc4c(cc3C2=O)OC(F)(F)O4)nc2cc(Br)ccn12 [P9, 6-(7-bromo-3-ethylsulfonyl-imidazo[1,2-a]pyridin-2-yl)-2,2-difluoro-5H-[1,3]dioxolo[4,5-f]isoindol-7-one]
≥ 80%: percent effect (mortality or growth inhibition) at 200 ppm [1] | control (mortality, anti-feedant effect or growth inhibition) at 200 ppm [2] | percent effect (mortality or growth inhibition) at 200 ppm [3] | percent control (mortality, anti-feedant effect or growth inhibition) at 200 ppm [4]

CCS(=O)(=O)c1c(N2Cc3cc4c(cc3C2=O)OC(F)(F)O4)nc2ccc(Br)cn12 [P10, 6-(6-bromo-3-ethylsulfonyl-imidazo[1,2-a]pyridin-2-yl)-2,2-difluoro-5H-[1,3]dioxolo[4,5-f]isoindol-7-one]
≥ 80%: control (mortality, anti-feedant effect or growth inhibition) at 200 ppm [2]

CCS(=O)(=O)c1c(N2Cc3cc4c(cc3C2=O)OC(F)(F)O4)nc2cc(Cl)ccn12 [P13, 6-(7-chloro-3-ethylsulfonyl-imidazo[1,2-a]pyridin-2-yl)-2,2-difluoro-5H-[1,3]dioxolo[4,5-f]isoindol-7-one]
≥ 80%: percent effect (mortality or growth inhibition) at 200 ppm [1] | control (mortality, anti-feedant effect or growth inhibition) at 200 ppm [2] | percent effect (mortality or growth inhibition) at 200 ppm [3] | percent control (mortality, anti-feedant effect or growth inhibition) at 200 ppm [4]

CCS(=O)(=O)c1c(N2Cc3cc4c(cc3C2=O)OC(F)(F)O4)nc2cc(I)ccn12 [P16, 6-(3-ethylsulfonyl-7-iodo-imidazo[1,2-a]pyridin-2-yl)-2,2-difluoro-5H-[1,3]dioxolo[4,5-f]isoindol-7-one]
≥ 80%: percent effect (mortality or growth inhibition) at 200 ppm [1] | control (mortality, anti-feedant effect or growth inhibition) at 200 ppm [2] | percent effect (mortality or growth inhibition) at 200 ppm [3] | percent control (mortality, anti-feedant effect or growth inhibition) at 200 ppm [4]

CCS(=O)(=O)c1c(N2Cc3cc4c(cc3C2=O)OC(F)(F)O4)nc2ccc(I)cn12 [P17, 6-(3-ethylsulfonyl-6-iodo-imidazo[1,2-a]pyridin-2-yl)-2,2-difluoro-5H-[1,3]dioxolo[4,5-f]isoindol-7-one]
≥ 80%: percent effect (mortality or growth inhibition) at 200 ppm [1] | control (mortality, anti-feedant effect or growth inhibition) at 200 ppm [2] | percent effect (mortality or growth inhibition) at 200 ppm [3] | percent control (mortality, anti-feedant effect or growth inhibition) at 200 ppm [4]
